From a compilation of properties of binary mixtures (doi:10.1007/s10953-012-9937-x)

Assay: xn = mol fraction of the nth substance listed
Conditions: 298.15 K, 101 kPa

CCCCCCCCn1cc[n+](C)c1.F[B-](F)(F)F + CCC(C)=O showed a viscosity (x2 = 0) of 336 mPa·s, a viscosity (x2 = 0.209) of 100.3 mPa·s and a viscosity (x2 = 0.2713) of 69.9 mPa·s. It also gave a viscosity (x2 = 0.3991) of 34.24 mPa·s, a viscosity (x2 = 0.5032) of 18.4 mPa·s and a viscosity (x2 = 0.551) of 13.82 mPa·s. For the same compound, the viscosity (x2 = 0.6006) was 10.26 mPa·s, the viscosity (x2 = 0.6442) was 7.54 mPa·s and the viscosity (x2 = 0.9518) was 0.63 mPa·s.
In the case of CCC(C)=O + CCCCCCCCn1cc[n+](C)c1.F[B-](F)(F)F, the viscosity (x1 = 1) is reported as 0.39 mPa·s.
For CCCOC(C)=O + CCCCCCCCn1cc[n+](C)c1.F[B-](F)(F)F, the viscosity (x1 = 1) was 0.56 mPa·s.
CCOC(C)=O + CCCCCCCCn1cc[n+](C)c1.F[B-](F)(F)F showed a viscosity (x1 = 1) of 0.44 mPa·s.
For COC(C)=O + CCCCCCCCn1cc[n+](C)c1.F[B-](F)(F)F, the viscosity (x1 = 1) was 0.39 mPa·s.
For CCCCCCCCn1cc[n+](C)c1.F[B-](F)(F)F + CCCCOC(C)=O, the viscosity (x2 = 0) was 336 mPa·s, the viscosity (x2 = 0.1989) was 124.4 mPa·s and the viscosity (x2 = 0.3002) was 74.3 mPa·s. It also gave a viscosity (x2 = 0.3991) of 45.91 mPa·s, a viscosity (x2 = 0.502) of 27.13 mPa·s and a viscosity (x2 = 0.5548) of 20.31 mPa·s. The viscosity (x2 = 0.6024) was 15.79 mPa·s, the viscosity (x2 = 0.654) was 11.56 mPa·s and the viscosity (x2 = 0.7075) was 8.27 mPa·s. The viscosity (x2 = 0.8007) was 4.31 mPa·s and the viscosity (x2 = 0.95) was 1.14 mPa·s.
Work on CCCCCCCCn1cc[n+](C)c1.F[B-](F)(F)F + CCCOC(C)=O yielded a viscosity (x2 = 0) of 336 mPa·s, a viscosity (x2 = 0.1006) of 198.9 mPa·s and a viscosity (x2 = 0.197) of 121.1 mPa·s. For the same compound, the viscosity (x2 = 0.2972) was 75.8 mPa·s, the viscosity (x2 = 0.4992) was 25.67 mPa·s and the viscosity (x2 = 0.6013) was 14.19 mPa·s. The viscosity (x2 = 0.6504) was 10.55 mPa·s, the viscosity (x2 = 0.7065) was 7.48 mPa·s and the viscosity (x2 = 0.7992) was 3.75 mPa·s. The viscosity (x2 = 0.9043) was 1.51 mPa·s and the viscosity (x2 = 0.9529) was 0.91 mPa·s.
CCCCCCCCn1cc[n+](C)c1.F[B-](F)(F)F + CCOC(C)=O gave a viscosity (x2 = 0) of 336 mPa·s, a viscosity (x2 = 0.1092) of 181 mPa·s and a viscosity (x2 = 0.2953) of 69.8 mPa·s. It also gave a viscosity (x2 = 0.4999) of 23.13 mPa·s, a viscosity (x2 = 0.5507) of 17.01 mPa·s and a viscosity (x2 = 0.7012) of 6.56 mPa·s. For the same compound, the viscosity (x2 = 0.9005) was 1.284 mPa·s.
With CCCCCCCCn1cc[n+](C)c1.F[B-](F)(F)F + COC(C)=O the viscosity (x2 = 0) was 336 mPa·s, the viscosity (x2 = 0.1173) was 188 mPa·s and the viscosity (x2 = 0.2964) was 70 mPa·s. For the same compound, the viscosity (x2 = 0.4063) was 34.24 mPa·s, the viscosity (x2 = 0.4511) was 24.78 mPa·s and the viscosity (x2 = 0.4964) was 18.4 mPa·s. For the same compound, the viscosity (x2 = 0.6056) was 10.26 mPa·s, the viscosity (x2 = 0.6519) was 7.54 mPa·s and the viscosity (x2 = 0.7027) was 5.04 mPa·s. For the same compound, the viscosity (x2 = 0.8989) was 1.03 mPa·s.
